This note sets out measurements from patent US9790506B2, “Diagnostic and screening methods for atopic dermatitis” (The Regents of the University of California, priority 2013, dated 2017).

The subject of assay [1] is keratinocytes. Kind of assay: ratiometric Ca^2+ imaging of keratinocytes. The class given is cell-based, human. The note with it: for SLIGRL-evoked Ca^2+ influx / intracellular Ca^2+ response of keratinocytes: SLIGRL 100 μM; for SLIGRL-evoked Ca^2+ influx / tryptase-evoked Ca^2+ influx: 2 mM Ca^2+, 50 μM 2-APB, 50 nM La^3+; for tryptase-evoked Ca^2+ influx / intracellular Ca^2+ response of keratinocytes: tryptase 100 nM; for intracellular Ca^2+ response of keratinocytes: BAM8-22 2 μM. As for the experimental part: (§1) Physiological Ringer solution: 140 mM NaCl, 5 mM KCl, 10 mM HEPES, 2 mM CaCl2, 2 mM MgCl2, 10 mM D-(+)-glucose, pH 7.4 with NaOH. Images were collected and analyzed using MetaFluor (Molecular Devices).

Another assay concerns NFAT. As to the kind of experiment: NFAT translocation to the nucleus in keratinocytes (immunostaining). The note with it: for SLIGRL-induced NFAT nuclear translocation in the presence of inhibitor: SLIGRL 100 μM + 2APB 50 μM or CsA 1 μM, 30 min. Format: cell-based, human. As for the experimental part: Histology Histology was carried out as previously described (Gerhold, 2013). Antibodies: rabbit anti-PGP9.5 and rabbit anti-peripherin (Millipore) 1:1000; goat anti-TSLPR and mouse anti-NFATcI (Santa Cruz Biotechnology) 1:100. IL7Rα and TSLPR probes (Panomics) were used for in situ hybridization following the Quantigene protocol (Panomics).
Following a rise in Ca^2+, NFAT is dephosphorylated by the Ca^2+-dependent phosphatase calcineurin and translocates from the cytosol to the nucleus to promote transcription of target genes (Rao et al., 1997).

Another assay concerns DRG neurons. Kind of assay: ratiometric Ca^2+ imaging of DRG neurons. The class given is cell-based, mouse. The following applies: for Ca^2+ levels in TSLP-positive cells on subsequent exposure: AITC 200 μM, CAP 1 μM, all TSLP-positive cells; for overlap of the TSLP-sensitive population with the population sensitive to the compound: DRG neurons, FIG. 3D; for prevalence of TSLP-sensitive neurons / TSLP-evoked Ca^2+ signals after pre-treatment: neurons pre-treated with blocker versus vehicle. As for the experimental part:
as §1

In a further assay the test system is mice. As to the kind of experiment: mouse cheek model of itch (scratching behavior after intradermal injection). The class given is in vivo. As for the experimental part: Mice and Behavior Mice (20-35 g) were housed in 12 h light-dark cycle at 21° C. […] For AITC behavior, 5 μL 10% AITC in mineral oil was applied to the right hind paw. Behavioral scoring was performed while blind to treatment and genotype. All experiments were performed under the policies and recommendations of the International Association for the Study of Pain and approved by the University of California, Berkeley Animal Care and Use Committee. […]

Assay [2] relates to keratinocytes. Kind of assay: TSLP release from keratinocytes (ELISA). The note with it: 24 h treatment, tryptase 100 nM, SLIGRL 100 μM; for TSLP secretion: TG 1 μM, versus vehicle; for TSLP secretion in the absence of external Ca^2+: 0 Ca. The class given is cell-based, human. From the text: TSLP release was normalized to vehicle.
In another assay the test system is TSLP transcripts. As to the kind of experiment: expression of TSLP transcripts in keratinocytes. The class given is cell-based, human. The following applies: PAR2-evoked SOCE; 3 h treatment with SLIGRL 100 μM versus vehicle. As for the experimental part:
RT-PCR RNA was extracted using RNeasy (Qiagen) and reverse transcription was performed using Superscript III. RT-PCR was carried out using SYBR Green (Invitrogen) on a StepOnePlus ABI machine. Threshold cycles for each transcript (Bogiatzi et al.) were normalized to GAPDH (ACt). Calibrations and normalizations used the 2^−ΔΔCt method where ΔΔCt=[(Ct (target gene)−Ct (reference gene)]−[Ct (calibrator)−Ct (reference gene)]; GAPDH=reference gene; scrambled siRNA=calibrator. Experiments were performed in triplicate.

The subject of assay [3] is keratinocytes. Kind of assay: perforated-patch voltage-clamp recordings on keratinocytes. The class given is cell-based, human. The note with it: SLIGRL 100 μM. The method, then: Electrophysiology Recordings were collected at 5 kHz and filtered at 2 kHz using an Axopatch 200B and PClamp software. Electrode resistances were 2-6 MΩ. Perforated patch internal solution: 140 mM CsCl, 5 mM EGTA, 10 mM HEPES, pH 7.4 with CsOH, 0.24 mg ml^−1 Amphotericin B (Rae et al., 1991). Stimulation protocol: 10 ms step to −80 mV, 150 ms ramp from −80 mV to +80 mV. Current clamp internal solution: 140 mM KCl, 5 mM EGTA and 10 mM HEPES (pH 7.4 with KOH). Series resistance of all cells were <30 MΩ, and liquid junction potentials were <5 mV (no correction).

A further assay concerns DRG neuron. As to the kind of experiment: current-clamp recording in DRG neuron. The class given is cell-based, mouse. The note with it: subset of CAP-sensitive DRG neurons.
The next assay concerns the target T1, MrgprC11 (Mus musculus, UniProt Q8CIP3).
T1 sequence (Q8CIP3 1-322): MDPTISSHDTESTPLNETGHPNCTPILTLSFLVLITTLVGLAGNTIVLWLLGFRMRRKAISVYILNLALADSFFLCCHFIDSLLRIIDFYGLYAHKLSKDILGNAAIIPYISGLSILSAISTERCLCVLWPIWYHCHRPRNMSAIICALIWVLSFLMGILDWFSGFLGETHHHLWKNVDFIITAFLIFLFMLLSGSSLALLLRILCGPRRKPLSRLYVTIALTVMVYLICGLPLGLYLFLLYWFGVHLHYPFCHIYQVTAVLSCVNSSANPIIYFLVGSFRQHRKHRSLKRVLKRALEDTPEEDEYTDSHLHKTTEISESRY
As to the kind of experiment: Ca^2+ response in the presence or absence of the mouse BAM8-22 receptor MrgprC11. The class given is cell-based. The following applies: tryptase 3 μM. As for the experimental part:
FIG. 15. […] MrgprX1 was amplified from DRG, but not keratinocytes. MrgprX1 and GAPDH were amplified from RT-treated tissue but not from “no RT” controls. (B) Representative response to BAM8-22 (BAM, 2 μM) in human keratinocytes. (C) Representative response to tryptase (TRY, 3 μM) and BAM8-22 (BAM, 2 μM) in the presence or absence of the mouse BAM8-22 receptor, MrgprC11. (D) Left: representative traces showing a neuron that is sensitive to BAM8-22 (BAM) but not tryptase (TRY, blue), and a neuron that is sensitive to tryptase but not BAM8-22 (black). Right: quantification of the prevalence of tryptase-responsive (TRY, black), BAM8-22-responsive (blue, BAM), and tryptase- and BAM8-22-responsive neurons in mouse dorsal root ganglia. n≧500 cells. Data are represented as mean+/−SEM

Ends that are not written are not given here. Bounds are passed on as bounds.

On to `NCCOB(c1ccccc1)c1ccccc1` [2-APB, 2-Aminoethoxydiphenyl borate], for which, in the assay with keratinocytes [1], the “SLIGRL-evoked Ca^2+ influx” value is “significantly attenuated” and the “tryptase-evoked Ca^2+ influx” value is on record as “significantly attenuated”. In addition, in the assay on NFAT, the “SLIGRL-induced NFAT nuclear translocation in the presence of inhibitor” value is “attenuated”. Moreover, the “SLIGRL-induced NFAT nuclear translocation in the presence of inhibitor” value in the assay on NFAT (listed as 2APB) is given as “prevented”.
Turning to `C=CCN=C=S` [AITC, allyl isothiocyanate], in the assay on DRG neurons, the “Ca^2+ levels in TSLP-positive cells on subsequent exposure” value is “further increased”.
On the same count and under the same terms, for `COc1cc(CNC(=O)CCCC/C=C/C(C)C)ccc1O` [CAP, capsaicin] the value was “further increased”.
In the case of `CCN(CC)CCCC(C)Nc1ccnc2cc(Cl)ccc12` (stereo not shown) [CQ, chloroquine], in the assay on DRG neurons, the “overlap of the TSLP-sensitive population with the population sensitive to the compound” value (“overlap of the TSLP-sensitive population” below) is listed as 6%.
Turning to `[La+3]` [La^3+, lanthanum], in the assay with keratinocytes [1], the “SLIGRL-evoked Ca^2+ influx” value is given as “significantly attenuated” and the “tryptase-evoked Ca^2+ influx” value is recorded as “significantly attenuated”.
Take `C=C(C)[C@]12C[C@@H](C)[C@@]34O[C@](Cc5ccccc5)(O[C@@H]1[C@@H]3C=C(COC(=O)Cc1ccc(O)c(OC)c1)C[C@]1(O)C(=O)C(C)=C[C@@H]41)O2` [RTX, resiniferatoxin]: the “TSLP-evoked scratching after neuronal ablation” value in the assay on mice (RTX-treated mice compared to control mice, RTX two days prior to pruritogen) is “significantly decreased”.
For the compound `C/C=C(/C)C(=O)O[C@H]1C(C)=C2[C@H]([C@@H]1OC(=O)CCCCCCC)[C@@](C)(OC(C)=O)C[C@H](OC(=O)CCC)[C@@]1(O)[C@H]2OC(=O)[C@@]1(C)O` [TG, thapsigargin], the TSLP secretion result in the assay on keratinocytes [2] is on record as “significant increase”.
In the case of `COc1ccc2c(c1)CC[C@@H]1[C@@H]2CC[C@]2(C)[C@@H](NCCCCCCN3C(=O)C=CC3=O)CC[C@@H]12` [U73122, 1-[6-[[(17β)-3-Methoxyestra-1,3,5(10)-trien-17-yl]amino]hexyl]-1H-pyrrole-2,5-dione], the “TSLP-evoked scratching after intradermal injection of PLC blocker” value in the assay on mice (30 min preinjection, versus vehicle, scratching quantified for 20 min) is listed as “significantly attenuated”. For the same compound, the “CQ-evoked scratching after intradermal injection of PLC blocker” value in the assay with mice (preinjection, versus vehicle) is given as “normal”. Moreover, the “prevalence of TSLP-sensitive neurons / TSLP-evoked Ca^2+ signals after pre-treatment” value in the assay on DRG neurons is “significantly reduced”.
On to `O=C1OC2(c3ccccc31)c1ccc(O)c(O)c1Oc1c2ccc(O)c1O` [gallein], for which, in the assay with DRG neurons, the “prevalence of TSLP-sensitive neurons / TSLP-evoked Ca^2+ signals after pre-treatment” value is given as “no effect”.
Regarding `NCCc1c[nH]cn1` [histamine], in the assay on DRG neurons, the “overlap of the TSLP-sensitive population” value worked out at 6%.
Regarding `N.N.N.N.N.N.N.N.N.N.N.N.N.N.[Cl-].[Cl-].[Cl-].[Cl-].[Cl-].[Cl-].[O-2].[O-2].[Ru+3].[Ru+3].[Ru+4]` [ruthenium red], in the assay on DRG neurons (20 μM ruthenium red), the “neuronal sensitivity to TSLP after TRPV1 and TRPA1 inhibition” value is recorded as “significantly decreased”.
With “SLIGRL [widely used PAR2 ligand mimetic]”, the “expression of TSLP transcripts” value in the assay with TSLP transcripts was “robustly increased”. In addition, the “intracellular Ca^2+ response of keratinocytes” value (“intracellular Ca^2+ response” below) in the assay with keratinocytes [1] is listed as “evoked a rise in intracellular Ca^2+”. Further, in the assay on keratinocytes [2], the TSLP secretion result is recorded as “robust secretion” and the “TSLP secretion in the absence of external Ca^2+” value was “not observed”. Moreover, in the assay on NFAT (SLIGRL 100 μM for 30 minutes), the “NFAT translocation to the nucleus” value is given as “induced robust NFAT translocation”. Further, in the assay with keratinocytes [3], the “reversal potential of SLIGRL-evoked currents” value is listed as “no measurable reversal potentials below +80 mV”. In the assay with keratinocytes [3] (dependent on extracellular Ca^2+, inwardly-rectifying), the SLIGRL-evoked currents result is given as “triggered an ORAI1/2-like current”.
In the case of “TSLP: AD cytokine released from keratinocytes; injected as pruritogen, acts on TSLPR-positive sensory neurons”, the “TSLP-evoked itch behaviors in strains lacking T and B cells or mast cells” value in the assay with mice (RAG1−/−, NOD SCID, Kit(W-sh) mice, no significant differences to wild type littermates) is reported as “robust itch behaviors”. In addition, the “time after injection at which robust itch behaviors were observed” value with mice (TSLP injection) was not above 5 min. Besides, the “wiping (pain behavior)” value in the assay on mice (TSLP injection into the cheek of wild type mice) is on record as “never observed”. The compound further gave a latency to scratch with mice (TSLP injection into the cheek of wild type mice (2.5 μg/20 μl)) of 4.1 ± 0.3 min. Further, the itch-evoked scratching result in the assay on mice (TSLP injection into the cheek of wild type mice, versus vehicle) is “evoked robust scratching”. In the assay with mice (cheek injection 2.5 μg/10 μL), the “TSLP-evoked scratching in TRPA1-deficient mice” value was “abolished” and the “TSLP-evoked scratching in TRPV1-deficient mice” value is given as “normal”. In addition, in the assay with mice (cheek injection, versus wild type), the “TSLP-evoked scratching in IL7Rα-deficient mice” value is listed as “significantly attenuated”. For the same compound, the “DRG neurons showing robust increases in intracellular Ca^2+” value with DRG neurons (TSLP application (2 ng/mL), wild-type neurons) came out at 4.1±0.6%. The “source of TSLP-evoked Ca^2+ signal in sensory neurons” value with DRG neurons (absence (0 mM) and presence (2 mM) of extracellular Ca^2+) is “triggers both release of Ca^2+ from intracellular stores, and subsequent Ca^2+ influx”. Further, the “evoked Ca^2+ signaling abolished in IL7Rα-deficient neurons” value in the assay on DRG neurons (neurons isolated from IL7Rα-deficient mice) is “abolished”. Besides, in the assay on DRG neurons (versus wild type littermates), the “TSLP-evoked Ca^2+ signals in TRPA1-deficient neurons” value is “significantly attenuated”. The action potential firing result in the assay on DRG neuron is recorded as “triggered action potential firing”.
Turning to “VGRPEWWMDYQKRYG [BAM8-22, MrgprX1-specific ligand, endogenous pruritogen]”, the “intracellular Ca^2+ response” value in the assay with keratinocytes [1] is on record as “insensitive”. Also, the “overlap of the TSLP-sensitive population” value in the assay with DRG neurons was 0%.
tryptase: endogenous PAR2 agonist: in the assay on mice (cheek 100 μg/20 μL), the “tryptase-evoked itch in IL7Rα-deficient mice” value was “significantly attenuated” and the “tryptase-evoked itch in PAR2-deficient mice” value was “significantly attenuated”. Further, the tryptase-evoked itch behaviors entry in the assay with mice (wild type mice, cheek 100 μg/20 μL, scratching quantified for 1 h) is reported as “induced robust itch behaviors”. Further, in the assay with MrgprC11, the “activation of MrgprC11” value is “does not activate”. The “intracellular Ca^2+ response” value with keratinocytes [1] was “evoked a rise in intracellular Ca^2+”. Also, in the assay with keratinocytes [2], the TSLP secretion entry was “robust secretion” and the “TSLP secretion in the absence of external Ca^2+” value is reported as “not observed”.
